These results are taken from PMC7611204 (Molecular cancer therapeutics, 2020).

The target in experiment [1] is T1, serine hydroxymethyltransferase 2 (SHMT2) (Homo sapiens, UniProt P34897).
T1 sequence (P34897 30-504): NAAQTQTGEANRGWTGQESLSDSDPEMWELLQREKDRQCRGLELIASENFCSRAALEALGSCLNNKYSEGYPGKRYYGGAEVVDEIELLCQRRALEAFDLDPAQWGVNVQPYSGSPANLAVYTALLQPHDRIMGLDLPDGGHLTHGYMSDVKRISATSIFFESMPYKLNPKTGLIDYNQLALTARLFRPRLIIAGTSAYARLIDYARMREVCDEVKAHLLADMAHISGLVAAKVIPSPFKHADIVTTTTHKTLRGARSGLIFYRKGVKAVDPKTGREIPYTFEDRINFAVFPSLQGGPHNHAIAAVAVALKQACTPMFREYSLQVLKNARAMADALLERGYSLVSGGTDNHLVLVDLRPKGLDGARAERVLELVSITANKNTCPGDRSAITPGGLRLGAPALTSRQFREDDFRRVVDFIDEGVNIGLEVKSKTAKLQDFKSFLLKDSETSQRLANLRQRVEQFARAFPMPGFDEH
Nature of the experiment: microscale thermophoresis with labeled recombinant human SHMT2. It counts as binding. Background: MST reads how a fluorescent partner responds to local heating, with and without ligand.

Experiment [2] deals with T2, phosphoglycerate dehydrogenase (PHGDH) (Homo sapiens, UniProt O43175).
T2 sequence (O43175 2-533): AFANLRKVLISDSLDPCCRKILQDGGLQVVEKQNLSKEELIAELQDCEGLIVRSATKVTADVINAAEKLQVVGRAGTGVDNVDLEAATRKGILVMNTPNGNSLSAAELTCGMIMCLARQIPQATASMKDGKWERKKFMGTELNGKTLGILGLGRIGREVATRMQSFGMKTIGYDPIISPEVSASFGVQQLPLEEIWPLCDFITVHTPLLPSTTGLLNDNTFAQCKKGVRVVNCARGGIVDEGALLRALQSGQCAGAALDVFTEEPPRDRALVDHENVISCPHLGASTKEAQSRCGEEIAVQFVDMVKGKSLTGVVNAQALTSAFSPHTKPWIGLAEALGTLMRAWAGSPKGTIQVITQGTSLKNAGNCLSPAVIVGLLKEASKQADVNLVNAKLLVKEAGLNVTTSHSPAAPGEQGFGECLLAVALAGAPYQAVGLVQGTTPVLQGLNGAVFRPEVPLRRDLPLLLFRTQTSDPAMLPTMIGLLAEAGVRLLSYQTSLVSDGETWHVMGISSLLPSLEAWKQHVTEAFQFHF

Regarding `CN[C@H]1CC[C@@H](c2ccc(Cl)c(Cl)c2)c2ccccc21` [sertraline], the Kd in experiment [1] was 13.1 µM.

As for `C[CH2][Hg][S]c1ccccc1C(=O)O` [thimerosal], in experiment [2], the IC50 was 0.152 µM.

As usually defined, the Kd is the constant that tells how readily two partners part at equilibrium. What is called IC50 is the concentration needed to halve the response being measured. The low end stands for higher potency, the high end for lower potency.
